Series [1] deals with central muscarinic receptors (M1) (Rattus norvegicus, UniProt P08482). As to the kind of experiment: biochemical. Format: binding. On the set-up: IC50^1 :IC50^2: unit not given beside the values.
The subject of series [2] is Guinea-pig ileum. Description: Guinea-pig ileum induced contractions. To be noted: ileum contraction.
The nature of series [3]: in vivo. To be noted: mouse, iv.
Assay in series [4]: not given
The source holds these as a separate data set.

For series [5], the system named is Guinea-pig ileum. Description: Guinea-pig ileum induced contractions. To be noted: for Type of activity: guinea-pig ileum; for IC50: inhibiting acetylcholine-induced contractions of the ileum. The source says:
Guinea-pig ileum induced contractions
*This dose is the IC50 for inhibiting acetylcholineinduced
contractions of the ileum.

A short description of series [6]: Signs observed in rats after oral dose of 100 mg./kg. Format: in vivo. The following applies: 100 mg./kg. oral.
In series [7] the target is central muscarinic receptors (M1 and M2). Format: binding, rat.
A short description of series [8]: in vivo. The following applies: mouse, po.
A short description of series [9]: Hypothermia-inducing activity in rats. The following applies: AF102B at 80 mg./kg. p.o. and 60 mg./kg. i.p., oxotremorine 3.2 mg./kg. p.o. or 1.2 mg./kg. i.p.

Structures are written as SMILES. Entries after “also recorded” stand apart in the source; their conditions may differ. Where two headings read alike, the source gives them in different places. Bounds are passed on as bounds.

Chain of central muscarinic receptors (M1) (P08482 whole entry): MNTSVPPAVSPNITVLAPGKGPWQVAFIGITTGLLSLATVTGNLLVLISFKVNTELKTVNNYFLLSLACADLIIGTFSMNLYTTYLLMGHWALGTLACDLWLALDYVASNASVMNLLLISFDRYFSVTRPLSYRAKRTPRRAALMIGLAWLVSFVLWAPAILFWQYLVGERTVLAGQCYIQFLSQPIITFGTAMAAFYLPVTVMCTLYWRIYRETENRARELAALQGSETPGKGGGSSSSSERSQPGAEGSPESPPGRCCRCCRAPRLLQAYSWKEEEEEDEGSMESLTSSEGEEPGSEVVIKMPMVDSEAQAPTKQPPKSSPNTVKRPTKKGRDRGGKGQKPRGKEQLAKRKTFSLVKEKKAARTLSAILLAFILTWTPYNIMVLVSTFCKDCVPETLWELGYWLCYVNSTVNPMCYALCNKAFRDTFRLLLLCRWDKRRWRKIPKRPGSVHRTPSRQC

Regarding `C[C@@H]1O[C@]2(CS1)CN1CCC2CC1` (relative stereo) [AF102A], the 50% inhibitory concentration (IC50) stood at 30000 nM in series [1] and 70000 nM in series [7] (read-out: IC50^2 for displacement of [^3 H]-QNB). Moreover, in [1] (PNZ:QNB displacement ratio), the “IC50^1 :IC50^2” value was determined as 0.43. Also, the concentration for a half-maximal effect (EC50) with Guinea-pig ileum [2] was above 10000 nM. The Mortality (mice, 36.0 mg./kg. i.v.) is 2/6; the Mortality (mice, 37.9 mg./kg. i.v.) is 3/6; the Mortality (mice, 40.0 mg./kg. i.v.) is recorded as 2/6; the Mortality (mice, 42.5 mg./kg. i.v.) was 4/6; the Mortality (mice, 45.0 mg./kg. i.v.) was 6/6; the Mortality in series [4] (mice, 78 mg./kg. per os) is reported as 0/5. The Mortality is recorded as 2/5 in series [4] (mice, 90 mg./kg. per os); 2/5 in series [4] (mice, 104 mg./kg. per os); 4/5 in series [4] (mice, 120 mg./kg. per os); 5/5 in series [4] (mice, 139 mg./kg. per os); 5/5 in [4] (mice, 160 mg./kg. per os). Also, the “time of death after intravenous injection” value (mice, approximate LD50 doses, iv) is reported as “about 30 secs”. In addition, the “onset of severe tremors after intravenous administration” value (mouse, in vivo, iv) was 10 s. The results for the LD50 in the series “in vivo [3]” and in “in vivo [8]” were 40.4 mg/kg and 102 mg/kg, respectively. Further, the “time of death after oral administration” value in series [4] (mice, approximate LD50 doses, oral) lay within 10 to 15 min. Moreover, the “absorption by the enteric route” value in series [4] (mice, inferred from i.v./oral LD50 ratio) was “efficient, rapid and apparently unaltered absorption”. Also, in [4] (mouse, in vivo), the “effects considered characteristic of parasympatho- or cholinomimetic activity” value is reported as “none of the test animals exhibited effects considered characteristic of parasympatho- or cholinomimetic activity”. For the same compound, the “onset of severe tremors after oral administration” value in series [4] (mouse, in vivo, po) fell in the range of 2 to 3 min. Besides, in the series with Guinea-pig ileum [5] (binding and ileum), the “muscarinic agonist activity (TABLES 1 and 2)” value is “almost one order of magnitude less active”. Moreover, in the series with Guinea-pig ileum [5], the Type of activity entry was “agonist”. Besides, the “Signs observed in rats” value in [6] is “spontaneous motor activity was slightly reduced; also recorded: mydriasis, with pupillary size being about three times that seen in controls; also recorded: sudden onset of a brief clonic convulsive seizure which 5 mins. later changed into periodic head twitching and tremors; also recorded: animals appeared somnolent, accompanied by partial loss of righting reflex, dyspnoeic and cyanotic, with very slight salivation and lachrymation; also recorded: full recovery occurred after several hours”. Moreover, in series [6], the mortality in rats result is on record as “one animal, out of the group of three, which was found dead”. In addition, the time found dead in series [6] (post-administration) is 40 min.

As to `C[C@@H]1OCC2(CN3CCC2CC3)O1` (stereo in doubt) [AF30, cis-2-methylspiro(1,3-dioxolane-4,3')quinuclidine, reference compound], in the series on Guinea-pig ileum [2], the half-maximal effective concentration (EC50) worked out at 4000 nM. Besides, the “effects considered characteristic of parasympatho- or cholinomimetic activity” value in [4] (mice, oral or iv, tremors, salivation, lachrymation, diarrhoea, miosis) is “did exhibit such side effects”. Besides, the Type of activity result in the series on Guinea-pig ileum [5] is on record as “agonist”.

Consider `c1ccc(C(c2ccccc2)C2OC3(CS2)CN2CCC3CC2)cc1` (stereo not shown) [(Ib), 2-diphenylmethylspiro(1,3-oxathiolane-5,3')quinuclidine], for which, in the series on Guinea-pig ileum [5], the Type of activity entry is on record as “antagonist” and it took 20 nM to reach half-maximal inhibition (IC50).

For the compound `CC1(c2ccccc2)OC2(CS1)CN1CCC2CC1` (stereo not shown) [(Ic), 2-methyl-2-phenylspiro(1,3-oxathiolane-5,3')quinuclidine], in the series on Guinea-pig ileum [5], the Type of activity entry was “antagonist” and half-maximal inhibition (IC50) was put at 2000 nM.

Take `O=C1CCCN1CC#CCN1CCCC1` [oxotremorine, reference compound]: in series [1], the response was half-maximal at 800 nM (EC50), half-maximal inhibition (IC50) was put at 800 nM and the “IC50^1 :IC50^2” value is listed as 0.27. Besides, the cholinomimetic manifestation entry in [9] was “full cholinomimetic syndrome associated with tonic-clonic convulsions”. In series [7] (summary table, read-out: EC50, [^3 H]--QNB-binding), the concentration for a half-maximal effect (EC50) was found to be 3000 nM.

In general, IC50 refers to the point on the concentration scale where inhibition reaches its midpoint. As a reminder, the EC50 is the midpoint of the concentration-response curve. As a reminder, the LD50 is the dose at which mortality reaches 50%.

Source of the values: patent publication US4855290A (priority 1985, dated 1989).
